# Test results taken from US8753875B2, “Compositions and means for diagnosing microbial infections” (priority 2007, dated 2014).
# Read-outs that look alike come from different tables or passages of the source.
# Assays:
# [1] = tested on: S. saprophyticus; set-up: key: Susceptible = S; Resistant = R; conditions: cited from earlier work
# [2] = tested on: Enterobacter; conditions: cited from earlier work
# [3] = tested on: Citrobacter; set-up: key: Susceptible = S; Resistant = R; conditions: cited from earlier work
# [4] = tested on: E. faecalis; assay: Growth on Flexicult plate, susceptibility/resistance to the five antibiotics (FIG. 4, Table A); type: cell-based
# Description: (§1) The kit was developed for urine culture in the primary health care setting. It is designed preferably as a nine cm Petri dish divided into six compartments: One larger compartment for quantitative analysis and five smaller compartments for susceptibility testing. The agar in each small compartment contains one of five antimicrobials (for Denmark and Scandinavia preferably: trimethoprim, sulfamethizole, ampicillin, nitrofurantoin and mecillinam (amdinocillin)) at a concentration adjusted to the breakpoint, such that growth in these compartments indicates resistance, and no growth indicates susceptibility. The Petri dish preferably has higher sides, approximately 2.48 cm, than the usual dish, i.e. ca. 1.48 cm. This allows a larger amount, maximum 100 ml, of urine to be poured onto the dish for inoculation.
# (§2) Reading the susceptibility of the bacterial growth: Each bacterium (if more than one) is read individually: The growth in each of the antibiotic fields is compared with the growth on the control agar. […] If there is no growth (or substantially less than the control agar), then the bacterium is considered to be susceptible to the antibiotic. […] When nitrofurantoin and mecillinam are used as antibiotics, a few single colonies may be seen of the same type as the bacterium on the control agar: These are not considered to be resistant mutants but “persisters,” i.e. if retested they will appear susceptible. This is commonly seen also by disc diffusion especially for mecillinam.
# [5] = tested on: Klebsiella spp.; assay: as above; type: cell-based
# Description: as §1, §2
# [6] = tested on: Morganella spp.; assay: as above; type: cell-based
# Description: as §1, §2
# [7] = tested on: Enterobacter spp; assay: as above; type: cell-based
# Description: as §1, §2
# [8] = tested on: Citrobacter spp.; assay: as above; type: cell-based
# Description: as §1, §2
# [9] = tested on: E. faecium; assay: as above; type: cell-based
# Description: as §1, §2
# [10] = tested on: E. coli; assay: as above; type: cell-based
# Description: as §1, §2
# [11] = tested on: S. saprophyticus; assay: as above; type: cell-based
# Description: as §1, §2
# [12] = tested on: Candida spp.; assay: as above; type: cell-based
# Description: as §1, §2
# [13] = tested on: P. vulgaris; assay: as above; type: cell-based
# Description: as §1, §2
# [14] = tested on: P. aureginosa; assay: as above; type: cell-based
# Description: as §1, §2
# [15] = tested on: Proteus mirabilis; assay: as above; type: cell-based
# Description: as §1, §2
# [16] = tested on: E. faecium; set-up: key: Susceptible = S; Resistant = R; conditions: cited from earlier work
# [17] = tested on: Morganella; set-up: key: Susceptible = S; Resistant = R; conditions: cited from earlier work
# [18] = tested on: E. coli; conditions: cited from earlier work
# [19] = tested on: E. coli; assay: Growth of E. coli in antibiotic compartments of the platform (FIG. 3); type: cell-based; conditions: illustrated E. coli of FIG. 3
# Description: The photos show growth of E. coli at different quantities of bacteria/ml urine.
# [20] = tested on: S. agalactiae; set-up: key: Susceptible = S; Resistant = R; conditions: cited from earlier work
# [21] = tested on: P. mirabilis; conditions: cited from earlier work
# [22] = tested on: E. coli; set-up: key: Susceptible = S; Resistant = R; conditions: cited from earlier work
# [23] = tested on: Staphylococcus saprophyticus ATCC 49907; conditions: 32 mg/l nitrofurantoin; 10^5 CFU/ml suspension, 18-24 hours at 37° C.
# [24] = tested on: Klebsiella; conditions: cited from earlier work
# [25] = tested on: E. coli; conditions: 1142 E. coli outpatient urinary isolates, USA and Canada; cited from earlier work
# [26] = tested on: Candida sp.; set-up: key: Susceptible = S; Resistant = R; conditions: cited from earlier work
# [27] = tested on: E. faecalis; set-up: key: Susceptible = S; Resistant = R; conditions: cited from earlier work
# [28] = tested on: P. vulgaris; set-up: key: Susceptible = S; Resistant = R; conditions: cited from earlier work
# [29] = tested on: Pseud. Aeruginosa; set-up: key: Susceptible = S; Resistant = R; conditions: cited from earlier work
smiles,measurement,setting,value
"O=C1CN(N=Cc2ccc([N+](=O)[O-])o2)C(=O)N1 [Nitrofurantoin, 1-[(5-nitro-2-furyl)methylideneamino]imidazolidine-2,4-dione]",Normal susceptibility/resistance,[1],S
same,Normal susceptibility/resistance,[2],S/R
same,Normal susceptibility/resistance,[3],S
same,Susceptibility = S or Resistance = R,[4],R
same,Susceptibility = S or Resistance = R,[5],R
same,Susceptibility = S or Resistance = R,[6],R/S
same,Susceptibility = S or Resistance = R,[7],S
same,Susceptibility = S or Resistance = R,[8],S
same,Susceptibility = S or Resistance = R,[9],R
same,Susceptibility = S or Resistance = R,[10],S
same,Susceptibility = S or Resistance = R,[11],S
same,Susceptibility = S or Resistance = R,[12],R
same,Susceptibility = S or Resistance = R,[13],R/S
same,Susceptibility = S or Resistance = R,[14],R
same,Susceptibility = S or Resistance = R,[15],S
same,Normal susceptibility/resistance,[16],S
same,Normal susceptibility/resistance,[17],R
same,Antimicrobial resistance of E. coli (resistance in percent),"[18]; Austria, n 126",0.8%
same,Antimicrobial resistance of E. coli (resistance in percent),"[18]; Belgium, n 137",0.7%
same,Antimicrobial resistance of E. coli (resistance in percent),"[18]; Canada, n 166",1.2%
same,Antimicrobial resistance of E. coli (resistance in percent),"[18]; Denmark, n 85",1.2%
same,Antimicrobial resistance of E. coli (resistance in percent),"[18]; Finland, n 182",0.5%
same,Antimicrobial resistance of E. coli (resistance in percent),"[18]; France, n 199",1.0%
same,Antimicrobial resistance of E. coli (resistance in percent),"[18]; Germany, n 138",0.7%
same,Antimicrobial resistance of E. coli (resistance in percent),"[18]; Greece, n 132",3.0%
same,Antimicrobial resistance of E. coli (resistance in percent),"[18]; Ireland, n 154",0%
same,Antimicrobial resistance of E. coli (resistance in percent),"[18]; Luxembourg, n 24",4.2%
same,Antimicrobial resistance of E. coli (resistance in percent),"[18]; Norway, n 168",0%
same,Antimicrobial resistance of E. coli (resistance in percent),"[18]; Portugal, n 86",5.8%
same,Antimicrobial resistance of E. coli (resistance in percent),"[18]; Spain, n 191",4.2%
same,Antimicrobial resistance of E. coli (resistance in percent),"[18]; Sweden, n 193",0%
same,Antimicrobial resistance of E. coli (resistance in percent),"[18]; Switzerland, n 122",0.8%
same,Antimicrobial resistance of E. coli (resistance in percent),"[18]; The Netherlands, n 195",1.0%
same,Antimicrobial resistance of E. coli (resistance in percent),"[18]; Total, n 2478",1.2%
same,Antimicrobial resistance of E. coli (resistance in percent),"[18]; United Kingdom, n 180",0%
same,resistant or susceptible (growth in antibiotic compartment),[19],susceptible
same,Normal susceptibility/resistance,[20],S
same,Normal susceptibility/resistance,[21],S/R
same,Normal susceptibility/resistance,[22],S
same,reduction in the growth of/numbers of colonies formed,[23],at least 4 log CFU/ml
same,Normal susceptibility/resistance,[24],S/R
same,Overall resistance in E. coli,[25],1.1%
same,Normal susceptibility/resistance,[26],R
same,Normal susceptibility/resistance,[27],S
same,Normal susceptibility/resistance,[28],R
same,Normal susceptibility/resistance,[29],R
